Measured values as given in patent EP2229935A1, “Peptide derivatives or pharmaceutically acceptable salts thereof, method for producing the same, use of said derivatives and pharmaceutical composition” (Nebolsin, Vladimir Evgenievich, priority 1997, dated 1999).
Where two headings read alike, the source gives them in different places. Marks after values point to notes of the source that are not given here.

Key:
[1] = tested on: hepatic P-450 cytochrome system; assay: Hexenal sleep duration in mice; format: in vivo; details: CBF1 mice, oral 3 days, control 25.91 ± 1.57
Description: Change in Hexenal sleep (HS) duration is the in vivo measurable index of hepatic P-450 cytochrome system condition.
Studies were carried out on male mice of the lines BALB/c*h75, C57B1/6, CBA, DBA/2, first generation CBF1 and BDF1 hybrides, with initial mass 18-20 g, each group including 10 mice; and on mongrel male guinea pigs with initial mass 250-300 g, each group including 24 animals. All the test compounds (from II to LII) were administered orally in drinking water and for three days at doses 50 and 500 µg/kg. Hexenal hydrochloride at a dose […] of animal mass was administered 24 hours after the last drug administration, except for line BALB/c*h75 mice, which were administered Hexenal at a dose 60 µg/kg at the same terms, and guinea pigs for which Hexenal dose was 30 µg/kg. HS duration was determined in minutes.

[2] = tested on: hydroxyl radical; assay: Hydroxyl radical formation in the Fenton reagent (chemiluminescence); format: biochemical
[3] = tested on: Lewis pulmonary carcinoma (LLC); assay: Lewis pulmonary carcinoma growth; format: in vivo; details: mice with LLC, day 12; for Growth inhibition percent: compound in drinking water; for Tumor volume (mm^3): compound in drinking water from 24 hours after transplantation
Description: Experiments were carried out on male mice with initial body mass 18-20 g. Each group included 10 animals. […] Administration of compounds II, III, IX, X, XII, XIV, XV, XVI, XVII, XIX, XXII, XLVII in drinking water was commenced 24 hours following transplantation and continued till the end of experiment. Effect of the compounds on Lewis rat pulmonary carcinoma (LLC) was estimated by day 12 of experiment by change in tumor volume expressed in mm^3.

[4] = tested on: Lewis pulmonary carcinoma (LLC); assay: Lewis pulmonary carcinoma spontaneous metastasizing, oral administration; format: in vivo; details: BDF1 female mice with LLC, oral 24 days; for Mean number of metastases: day 25
Description: Each group included 15 animals. 0.3 ml of LLC tumor tissue suspension was intramuscularly injected to mice. Henks solution was used as a solvent. […] Moscow (1992) 13 pp.]. […]

[5] = tested on: mongrel male rats; assay: Hypolipidemic activity: experimental hyperlipidemia (atherogenic load); details: atherogenic diet, oral last four days; for HDL-CS / LDL-CS+ VLDL-CS / Total CS / Triglycerides: blood; for Kcs: cholesterol index;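 as to all read-outs here: serum drawn 18 h after the final dose from rats deprived of food over that interval, groups of 10 animals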
Description: Hypolipidemic activity of the compounds of general formula (I) was studied on the model of experimental hyperlipidemia [Arichi H., Kumura H.O. Effects of stibens compounds of roots of polygonum cuspidatium on the lipid metabolism. […] Each group of animals included 10 rats. […] Blood samples were taken for analysis 18 hours after the last administration of the test substances during which period food was taken away from rats.
The following parameters were determined: total cholesterol (total CS); high density lipoprotein cholesterol (HDL-CS); low density lipoprotein cholesterol and very low density lipoprotein cholesterol (LDL-CS and VLDL-CS); triglycerides (TG). Blood serum CS level was determined according to the Ilk method [Biochemical examination in the clinic. […] HDL-CS level was measured in supernatant following heparine-manganese precipitation of LDL+VLDL [Titov V.N., Brener E.D., Khaltaiev N.G., Zadoya A.A., Tvorogova M.G. A method and diagnostic significance of cholesterol level study in α-lipoproteins. […] LDL-CS level determination was carried out by calculation according to the formula presented in the work Friedwald W.T. [Friedwald W.T., Levy K.J., Leus R. Fat transport in lipoproteins: an integrated approach to mechanism and disorders.
To assess the effect of the test compounds on the ratio of atherogenic and antiatherogenic blood serum lipoproteins, cholesterol index (Kcs) was calculated according to the formula presented in the work [Klimov A.N., Nikulcheva N.G. Lipoproteins, dylipoproteinemias and atherosclerosis.
Blood serum TG level was determined using the conventional method [Friedwald W.T., Levy R.I., Fredrickson D.S. Estimation of concentration of low-density lipoprotein cholesterol in plasma, without use of preparative ultracentrifuge.

[6] = tested on: white mongrel male rats; assay: Carrageenan paw edema, cutaneous gel application (series 2); format: in vivo; details: for Volume of paws (conditional units) Right: 0.1 ml of 1% gel on right paw, 4 hours after carrageenan; for Volume of paws (conditional units) left: 1% gel group, left paw; for Volume of paws (conditional units) left / Inflammation inhibition (%) / Volume increment: 4 hours; for Inflammation inhibition (%) / Volume increment: 1% gel
Description: (§1) Experiment was carried out on white mongrel male rats weighing 280-300 g. Carrageenan-induced edema was caused according to the method of Winter et al. [[inter et al. In: De Rosa M., Giroud J.P., Willoughby D.A. Studies of the mediators of the acute inflammatory reponse induced in rats in different sites by carrageenan and turpentine. […] Paw volume measurement was done using a plethysmograph (Ugo Basile) 1, 3 and 4 hours after carrageenan administration. Inhibition of inflammatory reaction expressed in percent, was calculated according to the formula: 100-[(R-L(exper.))/(L):(R-L(control))/(L)x100](%) [formula] where R - the right paw volume, L - the left paw volume.
Series 2 of experiment. 2% carrageenan solution was injected sublaterally into paws of rats. In 1 minute 0.1 ml of gel comprising the test compounds were applied on the right paw. Gel base consisted of propylene glycol dissolved in the mixture of water and ethanol. Concentration of the compounds in the gel was 1%. Volume of paws was measured 4 hours after carrageenan administration.

[7] = tested on: Strain Aichi of type A human influenza virus; format: in vivo; details: for Survival rate in percent: series with Control - 2 (34.5); for Protection degree in percent: series with Control - 2
[8] = tested on: white mongrel male rats; assay: Carrageenan paw edema, oral administration (series I); format: in vivo
Description: as §1
Series I of experiment. […] The reference drug Naproxene was once administered at a dose 20 µg/kg 1 hour before edema induction. Each group included 10 animals.

[9] = tested on: superoxide anion-radical; assay: Superoxide anion-radical formation in the xantine-xantine oxidase system (chemiluminescence); format: biochemical
Description: Effect of the compounds of general formula (I) on change in chemiluminescence (CL) determined by hydroxyl radical ( OH) and superoxide anion-radical (O2-), in the model chemical and enzymatic systems.
5 to 10 ml of the test compounds dissolved in water were at needed concentration introduced into a cuvette. A total sample volume was 0.5 ml. • B. Superoxide anion-radical in the mixture of xantine and xantine oxidase [Afanas'ev I., Suslova T., Cheremisina Z. et al. Study of antioxidant properties of metal aspartates.
Incubation medium comprised 5 mM KH2PO4; 0.2 IU/ml xantine oxidase. Xantine at concentration 1 mM was introduced into sample through a dispencer. Luceginine (0.2 mM) was used in this system as luminiscence sensitizer.
CL signal indication was performed by its integration every 10 seconds for 5 minutes. CL flash recording duration after mixing ingredients, depended on a particular process kinetics. For each system, CL light sum (mV) was determined in the control samples without preparations (I-) and in samples comprising respective concentrations of preparations (I+). To estimate CL inhibition (activation) degree, the I+/I- ratio (in relative units) was found in the studied systems.
AOF formation and effect of the test compounds on this process were recorded on the Luminometer-1251 instrument (LKB, Sweden).
Because of such "distension" of the kinetic curve, chemiluminescence light sum was recorded during the first 3-5 minutes which reflected a total amount of light quantums produced in the system till achieving the maximum CL intensity values.

[10] = 0.01 mM, control of the series as in the table
[11] = 0.1 mM, control of the series as in the table
[12] = 1 mM, control of the series 7839 ± 171, 1120 ± 163, 4974 ± 283 or 1332 ± 172
[13] = intragastral four times 50 µg/kg
[14] = 1 µM, control of the series as in the table
[15] = 1 mM, control of the series 5616 ± 173, 5391 ± 195, 7290 ± 128 or 6776 ± 150

Cl.O=C(O)CCCCC(=O)NCCc1c[nH]cn1 [IV, N-ADIPINYLHISTAMINE CHLOROHYDRATE]
Hexenal sleep duration (minutes) ([1]; 50 µg/kg): 20.39 ± 1.59* minutes

COC(=O)[C@H](Cc1c[nH]cn1)NC(=O)CCCC(=O)O [IX, N-GLUTARYL-L-HISTIDINE METHYL ETHER]
Hexenal sleep duration (minutes) ([1]; 50 µg/kg): 16.71 ± 0.94** minutes
Hexenal sleep duration ([1]; 500 µg/kg): 20.76 ± 1.32 min
relative effect: I+/I- ([2]; 0.01 mM): 0.95
Chemiluminiscence intensity (mV) + σn-1 [2, 10]: 1069 ± 72 mV
relative effect: I+/I- ([2]; 0.1 mM): 0.59
Chemiluminiscence intensity (mV) + σn-1 [2, 11]: 664 ± 47 mV
relative effect: I+/I- ([2]; 1 mM): 0.20
Chemiluminiscence intensity (mV) + σn-1 [2, 12]: 225 ± 9 mV
Growth inhibition percent [3]: 10%
Tumor volume (mm^3) [3]: 2372 ± 323 mm^3
Mean number of metastases ([4]; 500 µg/kg): 38.5 ± 5.7*^3
Metastasizing inhibition percent ([4]; 500 µg/kg): 24.0%
HDL-CS ([5]; 50 µg/kg): 29,7±3,6*^A
LDL-CS+ VLDL-CS ([5]; 50 µg/kg): 48,7±4,4**^A
Total CS ([5]; 50 µg/kg): 78,4±4,4*^A
Triglycerides ([5]; 50 µg/kg): 24,5±20,2
HDL-CS ([5]; 500 µg/kg): 20,1±1,6
LDL-CS+ VLDL-CS ([5]; 500 µg/kg): 52,0±3,4**^A
Total CS ([5]; 500 µg/kg): 72,1±3,9**^A
Triglycerides ([5]; 500 µg/kg): 201.8±8,1***^A
Kcs ([5]; 50 µg/kg): 1,64±0,16***^A
Kcs ([5]; 500 µg/kg): 2,59±0,17***^A

O=C1CC[C@@H](C(=O)NCCc2c[nH]cn2)N1 [LII, Pyroglutamylhistamine]
Hexenal sleep duration ([1]; 50 µg/kg): 21.14 ± 1.39 min

O=C(O)Cc1ccccc1Nc1c(Cl)cccc1Cl [Voltaren, reference compound]
Volume of paws (conditional units) Right [6]: 1.99 ± 0.24 conditional units
Volume of paws (conditional units) left [6]: 1.63 ± 0.26 conditional units
Inflammation inhibition (%) [6]: 48%
Volume increment [6]: 0.40 ± 0.03

CCCCCCCNC(=O)Cc1c[nH]cn1 [XXXIII, N-(IMIDAZOLYL-4-ACETHYL)-HEPTHYLAMINE]
Hexenal sleep duration (minutes) ([1]; 500 µg/kg): 19.82 ± 2.12* minutes
Survival rate in percent ([7]; 50 µg/kg orally): 63.3%
Survival rate in percent ([7]; 500 µg/kg orally): 76.6*^2%
Protection degree in percent ([7]; 50 µg/kg orally): 28.8%
Protection degree in percent ([7]; 500 µg/kg orally): 76.6%

O=C(O)CCC(=O)NCCc1c[nH]cn1 [compound II, N-SUCCINYLHISTAMINE]
Inflammation inhibition (%) [8, 13]: 12%
Volume increment [8, 13]: 0.64 ±0.05*^!
Volume of paws (conditional units) left [8, 13]: 1.28 ± 0.28 conditional units
Volume of paws (conditional units) Right ([8]; intragastral four times 50 µg/kg 72, 48, 24 and 1 hour before): 1.92 ± 0.65 conditional units
Hexenal sleep duration (minutes) ([1]; 500 µg/kg): 21.72 ± 1.24* minutes
relative effect: I+/I- ([2]; 1 µM): 0.86
Chemiluminiscence intensity (mV) + σn-1 [2, 14]: 961 ± 42 mV
relative effect: I+/I- ([2]; 0.01 mM): 0.69
Chemiluminiscence intensity (mV) + σn-1 [2, 10]: 772 ± 44 mV
relative effect: I+/I- ([2]; 0.1 mM): 0.62
Chemiluminiscence intensity (mV) + σn-1 [2, 11]: 693 ± 42 mV
relative effect: I+/I- ([2]; 1 mM): 0.16
Chemiluminiscence intensity (mV) + σn-1 [2, 12]: 175 ± 21 mV
relative effect: 1+/I- ([9]; 0.01 mM): 0.97
Chemiluminiscence intensity (mV) + σn-1 [9, 10]: 5229 ± 140 mV
relative effect: 1+/I- ([9]; 0.1 mM): 0.88
Chemiluminiscence intensity (mV) + σn-1 [9, 11]: 4753 ± 89 mV
relative effect: 1+/I- ([9]; 1 mM): 0.58
Chemiluminiscence intensity (mV) + σn-1 [9, 15]: 3143 ± 156 mV
Growth inhibition percent [3]: 61%
Tumor volume (mm^3) [3]: 1025 ± 150** mm^3
Mean number of metastases ([4]; 50 µg/kg): 44.3 ± 8.0
Mean number of metastases ([4]; 500 µg/kg): 32.9 ± 4.8*^2
Metastasizing inhibition percent ([4]; 50 µg/kg): 5.5%
Metastasizing inhibition percent ([4]; 500 µg/kg): 30.0%

COC(=O)[C@@H](N)CCC(=O)N[C@@H](Cc1c[nH]cn1)C(=O)O.Cl.Cl [compound XI, γ-L-GLUTAMYL HISTIDINE α-METHYL ETHER DICHLOROHYDRATE]
Hexenal sleep duration (minutes) ([1]; 500 µg/kg): 17.71 ± 0.66*** minutes
Chemiluminiscence intensity (mV) + σn-1 [2, 14]: 1116 ± 90 mV
Chemiluminiscence intensity (mV) + σn-1 [2, 10]: 1124 ± 113 mV
relative effect: I+/I- ([2]; 1 mM): 0.50
Chemiluminiscence intensity (mV) + σn-1 [2, 12]: 557 ± 52 mV
relative effect: 1+/I- ([9]; 0.1 mM): 0.82
Chemiluminiscence intensity (mV) + σn-1 [9, 11]: 4621 ± 224 mV
relative effect: 1+/I- ([9]; 1 mM): 0.40
Chemiluminiscence intensity (mV) + σn-1 [9, 15]: 2263 ± 278 mV

NCCC(=O)NCCc1c[nH]c2ccccc12 [compound XIII]
Volume of paws (conditional units) Right [6]: 2.29 ± 0.18 conditional units
Volume of paws (conditional units) left [6]: 1.82 ± 0.34 conditional units
Inflammation inhibition (%) [6]: 35%
Volume increment [6]: 0.47 ± 0.08
HDL-CS ([5]; 50 µg/kg): 23,9±1,9
LDL-CS+ VLDL-CS ([5]; 50 µg/kg): 52,4±3,9**^A
Total CS ([5]; 50 µg/kg): 76,3±5,5*^A
Triglycerides ([5]; 50 µg/kg): 201,2±8,7***^A
HDL-CS ([5]; 500 µg/kg): 27,8±2,3*^A
LDL-CS+ VLDL-CS ([5]; 500 µg/kg): 41,5±2,9***^A
Total CS ([5]; 500 µg/kg): 69,3±3,7***^A
Triglycerides ([5]; 500 µg/kg): 190,0±11,7***^A
Kcs ([5]; 50 µg/kg): 2,19±0,16***^A
Kcs ([5]; 500 µg/kg): 1,49±0,1***^A

N[C@@H](Cc1c[nH]cn1)C(=O)NCCC(=O)O [compound XXXVI, N-L-HISTIDYL-β-ALANINE]
Volume of paws (conditional units) Right [6]: 2.23 ± 0.42 conditional units
Volume of paws (conditional units) left [6]: 1.86 ± 0.16 conditional units
Inflammation inhibition (%) [6]: 50%
Volume increment [6]: 0.37 ± 0.07
